Where two headings read alike, the source gives them in different places.
Target: human PD-L1 / Human PD-1 (Homo sapiens (Human), UniProt Q9NZQ7)
Experiment: Enzyme-Linked Immunosorbent Assay (ELISA), PD-1/PD-L1 binding
Conditions: plate-coated human PD-L1, biotinylated human PD-1, read-out: ELISA IC50
Protocol: Plates were coated with 1 μg/mL of human PD-L1 (obtained from R&D) in PBS overnight at 4° C. The wells were then blocked with PBS containing 2% BSA in PBS (W/V) with 0.05% TWEEN-20 for 1 hour at 37° C. The plates were washed 3 times with PBS/0.05% TWEEN-20 and the samples were diluted to 1:5 in dilution medium in the ELISA plates. Human PD-1 and biotin 0.3 μg/mL (ACRO Biosystems) were added and incubated for 1 hour at 37° C. then washed 3 times with PBS/0.05% TWEEN-20. A second block was added with PBS containing 2% BSA in PBS (W/V)/0.05% TWEEN-20 for 10 min at 37° C. and was washed 3 times with PBS/0.05% TWEEN-20. Streptavidin-HRP was added for 1 hour at 37° C. then washed 3 times with PBS/0.05% TWEEN-20. TMB substrate was added and reacted for 20 min at 37° C. A stop solution (2 N aqueous H2SO4) was added. The absorbance was read at 450 nm using a micro-plate spectrophotometer.
Compounds in Table 2 and Table 3 were prepared by methods as described in the Examples, and evaluated according to the assay below.

human PD-L1 / Human PD-1, sequence (Q9NZQ7 19-239): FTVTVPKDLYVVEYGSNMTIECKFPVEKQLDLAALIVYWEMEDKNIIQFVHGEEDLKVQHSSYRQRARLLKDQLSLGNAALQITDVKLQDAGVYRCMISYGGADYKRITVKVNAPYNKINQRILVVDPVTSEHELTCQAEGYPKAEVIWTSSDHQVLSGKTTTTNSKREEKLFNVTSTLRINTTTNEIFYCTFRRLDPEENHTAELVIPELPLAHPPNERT

IC50 (Table 2) [nM]	IC50 (Table 3) [nM]	SMILES
500 to 20000		COc1cccc(-c2cccc3c2CCC3CCOc2cc(OCc3cncc(C#N)c3)c(CN3CCC(O)CC3)cc2Cl)c1F (centres unmarked) [Example 2.086]
< 100		N#Cc1cncc(COc2cc(O[C@H]3CCc4c(-c5ccccc5F)cccc43)c(Cl)cc2CN[C@@H](CCC(=O)O)C(=O)O)c1 [Example 2.117]
< 100		N#Cc1cncc(COc2cc(O[C@H]3CCc4c(-c5ccccc5)cccc43)c(Cl)cc2CNC[C@@H](O)CC(=O)O)c1 [Example 1.009]
	< 100	N#Cc1cncc(COc2cc(O[C@H]3CCc4c(C5=CCCCC5)cccc43)c(Cl)cc2CN[C@@H](CO)C(=O)O)c1 [Example 3.117]
100 to 500		CCOc1cc(O[C@H]2CCc3c(-c4ccccc4F)cccc32)c(Cl)cc1CN[C@H](C(=O)O)[C@@H](C)O [Example 2.157]
< 100		N#Cc1cncc(COc2cc(O[C@H]3CCc4c(-c5ccc6c(c5F)OCCO6)cccc43)c(Cl)cc2CN2CCC(O)CC2)c1 [Example 2.058]
	< 100	C[C@@](CO)(NCc1cc(Cl)c(O[C@H]2CCc3c(-c4ccc5c(c4F)OCCO5)cccc32)cc1OCc1cc(C#N)cc(C#N)c1)C(=O)O [Example 3.005]
100 to 500		Nc1ncc(COc2cc(O[C@H]3CCc4c(-c5ccccc5F)cccc43)c(Cl)cc2CN2CCC(O)CC2)cn1 [Example 2.130]
100 to 500		N#Cc1cncc(COc2cc(O[C@H]3CCc4c(-c5ccccc5F)cccc43)c(Cl)cc2CNCc2nc(=O)o[nH]2)c1 [Example 2.150]
100 to 500		N#Cc1cncc(COc2cc(O[C@H]3CCc4c(-c5ccccc5F)cccc43)c(Cl)cc2CNC(CO)C(=O)NO)c1 (some centres unmarked) [Example 2.166]
100 to 500		C[C@@H](O)[C@H](NCc1cc(Cl)c(O[C@H]2CCc3c(-c4ccccc4F)cccc32)cc1OCc1cncc(C#N)c1)C(N)=O [Example 2.149]
	100 to 500	CC(Cc1ccccn1)NCc1cc(Cl)c(O[C@H]2CCc3c(-c4ccccc4F)cccc32)cc1OCc1cncc(C#N)c1 (some centres unmarked) [Example 3.052]
100 to 500		COc1ccc(-c2cccc3c2CC[C@@H]3Oc2cc(OCc3cncc(C#N)c3)c(CN[C@@H](CO)C(=O)O)cc2Cl)c(F)c1 [Example 2.044]
500 to 20000		COc1cccc(-c2cccc3c2CC[C@@H]3Oc2cc(OCc3cncc(C#N)c3)c(CNCCS(N)(=O)=O)cc2Cl)c1F [Example 2.078]
	100 to 500	N#Cc1cncc(COc2cc(O[C@H]3CCc4c(-c5ccccc5F)cccc43)c(Cl)cc2CN[C@@H](CC(=O)O)C(=O)O)c1 [Example 3.105]
	500 to 20000	N#Cc1cncc(COc2cc(O[C@H]3CCc4c(-c5ccccc5F)cccc43)c(Cl)cc2CN[C@@H](Cc2c[nH]cn2)C(=O)NCC(=O)NCC(=O)O)c1 [Example 3.056]
< 100		CN(C)Cc1cc(Cl)c(O[C@H]2CCc3c(-c4ccccc4F)cccc32)cc1OCc1cncc(C#N)c1 [Example 2.031]
	100 to 500	CC(NCc1cc(Cl)c(O[C@H]2CCc3c(-c4ccccc4F)cccc32)cc1OCc1cncc(C#N)c1)C(=O)c1ccc(O)c(O)c1 (some centres unmarked) [Example 3.076]
	500 to 20000	CC(C)(C)OC(=O)[C@H](CO)NCc1cc(Cl)c(O[C@H]2CCc3c(-c4ccccc4F)cccc32)cc1OCc1cncc(C#N)c1 [Example 3.136]

IC50 (Table 2) [nM]	IC50 (Table 3) [nM]	SMILES
100 to 500		COc1cccc(-c2cccc3c2CC[C@@H]3Oc2cc(OCc3cncc(C#N)c3)c(CN3CCC(C(N)=O)CC3)cc2Cl)c1Cl [Example 2.083]
100 to 500		COc1cccc(-c2cccc3c2CC[C@@H]3Oc2cc(OCc3cncc(C#N)c3)c(CNCc3n[nH]c(=O)[nH]3)cc2Cl)c1F [Example 2.053]
100 to 500		COc1cccc(-c2cccc3c2CCC3Oc2cc(OCc3cncc(C#N)c3)c(CNCCC(N)=O)cc2Cl)c1F (centres unmarked) [Example 2.080]
100 to 500		COc1ccc(F)c(-c2cccc3c2CC[C@@H]3Oc2cc(OCc3cncc(C#N)c3)c(CN3CC(O)C3)cc2Cl)c1 [Example 2.077]
100 to 500		C=CC(=O)NCCNCc1cc(Cl)c(O[C@H]2CCc3c(-c4ccccc4F)cccc32)cc1OCc1cncc(C#N)c1 [Example 2.137]
< 100		N#Cc1cncc(COc2cc(O[C@H]3CCc4c(-c5ccc6c(c5Cl)OCCO6)cccc43)c(Cl)cc2CN[C@@H](CO)C(=O)O)c1 [Example 2.161]
	100 to 500	N#Cc1cncc(COc2cc(O[C@H]3CCc4c(-c5ccccc5F)cccc43)c(Cl)cc2CN[C@H]2CCc3ccc(O)cc3C2)c1 [Example 3.093]
	100 to 500	Cn1ccnc1CNCc1cc(Cl)c(O[C@H]2CCc3c(-c4ccccc4F)cccc32)cc1OCc1cncc(C#N)c1 [Example 3.075]
100 to 500		C[C@@H](O)[C@H](NCc1cc(Cl)c(O[C@H]2CCc3c(-c4ccccc4F)cccc32)cc1OCc1cccnn1)C(=O)O [Example 2.133]
100 to 500		CC(C)(O)CNCc1cc(Cl)c(O[C@H]2CCc3c(-c4ccccc4F)cccc32)cc1OCc1cncc(C#N)c1 [Example 2.143]
100 to 500		N#Cc1cncc(COc2cc(O[C@H]3CCc4c(-c5ccccc5F)cccc43)c(Cl)cc2CN[C@@H](CO)C(N)=O)c1 [Example 2.167]
100 to 500		CCOc1cc(O[C@H]2CCc3c(-c4ccccc4F)cccc32)c(Cl)cc1CN[C@@H](C)C(=O)O [Example 2.153]
	< 100	N#Cc1cncc(COc2cc(OC3CCc4c(-c5ccccc5F)cccc43)c(F)cc2CN[C@@H](CO)C(=O)O)c1 (some centres unmarked) [Example 3.070]
	< 100	N#Cc1cncc(COc2cc(O[C@H]3CCc4c(-c5ccccc5F)cccc43)c(Cl)cc2CN[C@H]2CCC[C@@H]2O)c1 [Example 3.019]
100 to 500		N#Cc1cncc(COc2cc(O[C@H]3CCc4c(-c5ccccc5F)cccc43)c(Cl)cc2CNCc2cnn[nH]2)c1 [Example 2.025]
< 100		C[C@@](CO)(NCc1cc(Cl)c(O[C@H]2CCc3c(-c4ccccc4F)cccc32)cc1-c1cncc(C#N)c1)C(=O)O [Example 2.159]
	< 100	N#Cc1cncc(COc2cc(O[C@H]3CCc4c(-c5ccc6c(c5F)OCCO6)cccc43)c(Cl)cc2CN[C@@H](CCO)C(=O)O)c1 [Example 3.034]
	< 100	Cn1cnc(CNCc2cc(Cl)c(O[C@H]3CCc4c(-c5ccccc5F)cccc43)cc2OCc2cncc(C#N)c2)c1 [Example 3.091]
500 to 20000		COc1cccc(-c2cccc3c2CC[C@@H]3Oc2cc(OCc3cncc(C#N)c3)c(CNCc3noc(=O)[nH]3)cc2Cl)c1F [Example 2.054]

IC50 (Table 2) [nM]	IC50 (Table 3) [nM]	SMILES
100 to 500		COc1cccc(F)c1-c1cccc2c1CC[C@@H]2Oc1cc(OCc2cncc(C#N)c2)c(CN[C@@H](CO)C(=O)O)cc1Cl [Example 2.105]
< 100		N#Cc1cncc(COc2cc(O[C@H]3CCc4c(-c5ccccc5F)cccc43)c(Cl)cc2CNC2(C(=O)O)CC2)c1 [Example 2.144]
100 to 500		N#Cc1cccc(-c2cc(O[C@H]3CCc4c(-c5ccccc5F)cccc43)c(Cl)cc2CN[C@@H](CO)C(=O)O)c1 [Example 2.121]
500 to 20000		N#Cc1cncc(COc2cc(O[C@H]3CCc4c(-c5ccccc5F)cccc43)c(Cl)cc2CN[C@@H]2[C@@H]3CC[C@@H](C3)[C@@H]2C(=O)O)c1 [Example 2.174]
100 to 500		N#Cc1cncc(COc2cc(O[C@H]3CCc4c(-c5ccccc5F)cccc43)c(Cl)cc2CN[C@@H](C(=O)O)c2ccc(O)cc2)c1 [Example 2.175]
	100 to 500	N#Cc1cncc(COc2cc(O[C@H]3CCc4c(-c5ccccc5F)cccc43)c(Cl)cc2CN[C@H](CCCNC(=N)N)C(=O)O)c1 [Example 3.098]
< 100		N#Cc1cncc(COc2cc(O[C@H]3CCc4c(-c5ccccc5F)cccc43)c(Cl)cc2CN2CCC(O)(C(=O)O)C2)c1 (some centres unmarked) [Example 2.022]
	100 to 500	O=C(O)c1cncc(COc2cc(O[C@H]3CCc4c(-c5ccccc5F)cccc43)c(Cl)cc2CN[C@@H](CO)C(=O)O)c1 [Example 3.029]
	< 100	N#Cc1cncc(COc2cc(O[C@H]3CCc4c(-c5ccc6c(c5F)OCCO6)cccc43)c(Cl)cc2CN[C@H](CO)C(=O)O)c1 [Example 3.054]
< 100		N#Cc1cncc(COc2cc(O[C@H]3CCc4c(-c5ccccc5F)cccc43)c(Cl)cc2CN2CCC(O)CC2)c1 [Example 2.029]
< 100		N#Cc1cncc(COc2cc(O[C@H]3CCc4c(-c5ccccc5F)cccc43)c(Cl)cc2CNCP(=O)(O)O)c1 [Example 2.063]
500 to 20000		N#Cc1cncc(COc2cc(O[C@H]3CCc4c(-c5ccccc5F)cccc43)c(Cl)cc2CNC(C(N)=O)C(N)=O)c1 [Example 2.170]
100 to 500		COc1ccc(-c2cccc3c2CC[C@@H]3Oc2cc(OCc3cncc(C#N)c3)c(CN[C@@H](CO)C(=O)O)cc2Cl)cc1C [Example 2.023]
	100 to 500	COc1cccc(-c2cccc3c2CC[C@@H]3Oc2cc(OCc3cncc(C#N)c3)c(CN3CCC(O)C(CO)C3)cc2Cl)c1Cl (some centres unmarked) [Example 3.124]
	< 100	C[C@H](NC(=O)[C@H](CO)NCc1cc(Cl)c(O[C@H]2CCc3c(-c4ccccc4F)cccc32)cc1OCc1cncc(C#N)c1)C(=O)O [Example 3.049]
500 to 20000		Cc1cc(-c2cccc3c2CC[C@@H]3Oc2cc(OCc3cncc(C#N)c3)c(CN[C@@H](CO)C(=O)O)cc2Cl)ccc1N(C)C [Example 2.026]
500 to 20000		N#Cc1cccc(COc2cc(O[C@H]3CCc4c(-c5ccccc5F)cccc43)c(Cl)cc2CN2CCC(O)CC2)c1 [Example 2.110]
	< 100	N#Cc1cncc(COc2cc(O[C@H]3CCc4c(-c5ccccc5F)cccc43)c(Cl)cc2CN[C@@H](CO)C(=O)NCC(=O)NCC(=O)O)c1 [Example 3.043]

Source: patent publication US10639284B2, “Immunomodulator compounds” (CHEMOCENTRYX, INC., priority 2016, dated 2020)
